The test system of data set [1] is CREB phosphorylation in BMSCs. The data set is described as follows: Western blotting of CREB phosphorylation (cAMP-PKA signaling). Format: cell-based, C57/BL6 mice. As to the method: The unstimulated group was the control group. After the stimulation, the cells were digested, and RIPA cell lysate (containing protein phosphatase inhibitors) was added and centrifuged. 30 μg protein was separated with SDS-PAGE. The proteins were then shifted to the nitrocellulose membrane using a trans-Blot Turbo Transfer System (Bio-Rad Laboratories, Hercules, CA, USA). Membrane was sealed with 5% bovine serum albumin (BSA) for 1 h. Membrane and specific primary antibody were incubated overnight at 4°C. Then, membrane was disposed with fluorescently labeled secondary Goat anti-Rabbit IgG Antibody (Dylight) for 1 hour at 25°C. The protein bands were imaged with a Bio-Rad visual imaging system (Bio-Rad Laboratories, Hercules, CA), and the relative protein expression was analyzed by Image J.

Data set [2] is described as follows: CD spectroscopy, peptide helicity. Format: physicochemical. Particulars: 50 μM peptide in 50.0% TFE water solution, 25°C (legend: 20°C), from [θ]222. How it is done: CD parameters was collected on a JASCO J-820 spectropolarimeter (JASCO Corp., Ltd). […] The sample ellipticity data were collected at 25°C and 195 nm. The helicity of the polypeptide is calculated by the following formula [36, 37]. (1) α=θ222/ θmax×100%.
[θ]222 was the molar ellipticity at the absorption wavelength of 222 nm, [θ]max = ([…] + 250 T) (1 − K/N), K = 4, and N was the number of amino acids of the polypeptide (n = 34).

Data set [3] relates to OVX-induced bone loss in mice. The data set is described as follows: OVX-induced bone loss model (micro-CT, histology, qPCR). Format: in vivo, C57/BL6 mice. In general terms: In qPCR the cycle at which signal appears reflects the starting amount.
Data set [4] concerns BMSCs. The data set is described as follows: In vitro adipogenesis assay of BMSCs. Format: cell-based, C57/BL6 mice.
Data set [5] relates to BMSCs. Description: In vitro osteogenesis assay of BMSCs. Format: cell-based, C57/BL6 mice.
For data set [6], the system named is BMSCs. Description: CCK-8 cell viability assay. Format: cell-based, C57/BL6 mice. Particulars: concentrations below 100 μM, 48 h and 96 h, absorbance 450 nm. How it is done: BMSCs were extracted from the femoral and tibial marrow cavity of 5-week-old C57/BL6 mice and cultured in mouse bone marrow mesenchymal stem cell medium for 2-3 days. The new culture medium was changed until the adherent cells grew 95% confluence and cell passage, or subsequent experiments were carried out. The cell growth environment was 37°C, 5% CO2, and […].
Cell viability of BMSCs were tested using the CCK-8 (Dojindo Molecular Technology, Kumamoto, Japan) according to instruction. BMSCs were inoculated in a 96-well plate (5 × 10^3 cells per well) and hatched overnight. […] Then, cells were disposed with 10 μl of CCK-8 reagent for 2 hours. After incubation, the absorbance was measured at 450 nm in a Biotek Cytation 5 System (Biotek Instruments, Vermont, USA).
(Tetrazolium dyes change colour on reduction, which living cells bring about.)

For data set [7], the system named is BMSCs. Description: Cell cycle analysis by PI staining and flow cytometry. Particulars: PI staining, flow cytometry. Format: cell-based, C57/BL6 mice. How it is done:
Cells were cultured with 10 μM BrdU for one hour and fixed in 70% ethanol at -20 C. After washing with phosphate/citric buffer (40 ml Na2HPO4 with 4 ml 0.1 M citric acid), the cells were incubated with anti-BrdU antibody for one hour, then stained with propidium iodide (PI). For PI/RNase staining, cells were incubated with 0.5 ml of PI/RNAse staining buffer (BD Pharmingen) at 25°C for 15 minutes, then analyzed by flow cytometry.
Background: A flow cytometer gives signals particle by particle.

For data set [8], the system named is heart, liver, spleen, lung, and kidney of mice. Description: In vivo tissue toxicity test (H&E staining of organs). Particulars: H&E staining after administration. How it is done:
(a) BMSC cell viability as assessed by CCK-8 assay following treatment without or with indicated concentrations of PTHG2 for 48 and 96 h. […] (c) The relative expression of Cebp-α and Perilipin following PTHG2 treatment was quantified by real-time PCR. (d) After pretreatment with H89, BMSC differentiated and stained with Alizarin red for 21 days. Supplementary Material 2: H&E staining of the heart, liver, spleen, lung, and kidney after administration of normal saline, PTH, and PTHG2. Click here for additional data file.

The mark [9] stands for this setting: 20/40 μg·kg−1 intraperitoneal daily for 8 weeks, compared with OVX group.

Each structure is given as a SMILES string.

`O=S(=O)(NCCNC/C=C/c1ccc(Br)cc1)c1cccc2cnccc12` [H89-2HCL, H89-2HCl, reference compound]: the “phosphorylation level of CREB” value in data set [1] (BMSCs pretreated with H89-2HCl for 1 hour, then stimulated with PTH (1-34)/PTHG2 for 6 hours) is listed as “not increased”.
`CC[C@H](C)[C@H](NC(=O)[C@H](CCC(=O)O)NC(=O)[C@H](CO)NC(=O)[C@@H](NC(=O)[C@@H](N)CO)C(C)C)C(=O)N[C@@H](CCC(N)=O)C(=O)N[C@@H](CC(C)C)C(=O)N[C@@H](CCSC)C(=O)N[C@@H](Cc1c[nH]cn1)C(=O)N[C@@H](CC(N)=O)C(=O)N[C@@H](CC(C)C)C(=O)NCC(=O)N[C@@H](CCCCN)C(=O)N[C@@H](Cc1c[nH]cn1)C(=O)N[C@@H](CC(C)C)C(=O)N[C@@H](CC(N)=O)C(=O)N[C@@H](CO)C(=O)N[C@@H](CCSC)C(=O)N[C@@H](CCC(=O)O)C(=O)N[C@@H](CCCNC(=N)N)C(=O)N[C@H](C(=O)N[C@@H](CCC(=O)O)C(=O)N[C@@H](Cc1c[nH]c2ccccc12)C(=O)N[C@@H](CC(C)C)C(=O)N[C@@H](CCCNC(=N)N)C(=O)N[C@@H](CCCCN)C(=O)N[C@@H](CCCCN)C(=O)N[C@@H](CC(C)C)C(=O)N[C@@H](CCC(N)=O)C(=O)N[C@@H](CC(=O)O)C(=O)N[C@H](C(=O)N[C@@H](Cc1c[nH]cn1)C(=O)N[C@@H](CC(N)=O)C(=O)N[C@@H](Cc1ccccc1)C(=O)O)C(C)C)C(C)C` [PTH (1-34), Teriparatide, reference compound]: the helicity in data set [2] was found to be 38.5%. For the same compound, in data set [3] (setting [9]), the “bone trabeculae number (Tb. N), micro-CT of femur” value is given as “significantly increased” and the “bone volume fraction (BV/TV), micro-CT of femur” value is on record as “significantly increased”.
`CC[C@H](C)[C@H](NC(=O)[C@H](CCC(=O)O)NC(=O)[C@H](CO)NC(=O)[C@@H](NC(=O)[C@@H](N)CO[C@@H]1O[C@H](CO)[C@@H](O)[C@H](O)[C@H]1NC(C)=O)C(C)C)C(=O)N[C@@H](CCC(N)=O)C(=O)N[C@@H](CC(C)C)C(=O)N[C@@H](CCSC)C(=O)N[C@@H](Cc1c[nH]cn1)C(=O)N[C@@H](CC(N)=O)C(=O)N[C@@H](CC(C)C)C(=O)NCC(=O)N[C@@H](CCCCN)C(=O)N[C@@H](Cc1c[nH]cn1)C(=O)N[C@@H](CC(C)C)C(=O)N[C@@H](CC(N)=O)C(=O)N[C@@H](CO)C(=O)N[C@@H](CCSC)C(=O)N[C@@H](CCC(=O)O)C(=O)N[C@@H](CCCNC(=N)N)C(=O)N[C@H](C(=O)N[C@@H](CCC(=O)O)C(=O)N[C@@H](Cc1c[nH]c2ccccc12)C(=O)N[C@@H](CC(C)C)C(=O)N[C@@H](CCCNC(=N)N)C(=O)N[C@@H](CCCCN)C(=O)N[C@@H](CCCCN)C(=O)N[C@@H](CC(C)C)C(=O)N[C@@H](CCC(N)=O)C(=O)N[C@@H](CC(=O)O)C(=O)N[C@H](C(=O)N[C@@H](Cc1c[nH]cn1)C(=O)N[C@@H](CC(N)=O)C(=O)N[C@@H](Cc1ccccc1)C(=O)O)C(C)C)C(C)C` [PTHG2] yielded a helicity in data set [2] of 39.1%. Moreover, the “number of FABP4-positive cells (IHC, distal femur)” value in data set [3] was “reduced”. Further, in data set [3] (8 weeks of treatment), the “OCN positivity, immunofluorescence of distal femur” value is given as “significant increase”. Moreover, in data set [3] (8 weeks of treatment, compared to the OVX group, n = 6 per group), the “number of lining cells on the trabecular bone surface (H&E)” value is “significantly increased”. The “expression of OCN gene in bone mRNA (qPCR)” value in data set [3] (bone of the upper limb, compared with the OVX group) is “significantly increased”. For the same compound, the “inhibition of adipocyte generation (Fabp4 gene, qPCR)” value in data set [3] (compared with PTH (1-34)) was “same effect as PTH (1-34)”. Further, the “number of adipocytes (vacuoles/cavitation) in H&E staining” value in data set [3] (metaphysis, compared with OVX group) was “significantly reduced”. Also, the “number of adipocytes (oil red staining)” value in the data set with BMSCs [4] (adipogenic conditioned medium, 21 days, compared with the control) is recorded as “did not increase”. In addition, the “adipogenic gene protein expression (Fabp4/PPARɣ/Adiponectin)” value in the data set on BMSCs [4] (adipogenic differentiation, compared with control group) was “resemble to that of the control group”. In addition, in data set [1] (BMSCs starved 1 hour, stimulated with 10 μM peptide for 6 hours, without H89-2HCl), the “phosphorylation level of CREB” value is listed as “increased”. In addition, the “osteogenic differentiation activity of BMSCs (ALP staining)” value in the data set on BMSCs [5] (10 nM, 6 h/day, osteogenic medium, 7 days) is listed as “significantly enhanced”. The “expression of Runx2 gene (qPCR)” value with BMSCs [5] (10 nM, osteogenic differentiation, compared with control group) is reported as “higher than that in control group”. Further, in the data set with BMSCs [5] (osteogenic differentiation, 3, 7, and 10 days, compared to the control group), the “ALP and RUNX2 protein levels (Western blotting)” value was “significantly increased”. Moreover, in the data set with BMSCs [6], the “toxicity to BMSCs (CCK-8)” value is “no toxicity”. Further, the “effect on cell cycle” value in the data set on BMSCs [7] was “no effect”. Also, in data set [8], the “tissue toxicity to heart, liver, spleen, lung, and kidney” value is given as “no toxicity”.

For the origin of these results see publication PMC8720025, “PTHG2 Reduces Bone Loss in Ovariectomized Mice by Directing Bone Marrow Mesenchymal Stem Cell Fate” (Stem Cells International, 2021).
